According to PMC5640605, “Fructose-1,6-bisphosphate couples glycolytic flux to activation of Ras” (Nature Communications, 2017):

Biological target: T1, Sos1 (Homo sapiens, UniProt Q07889)
T1 construct: catalytic part of Sos1 (residues 564–1049)
T1 sequence (Q07889 564-1049): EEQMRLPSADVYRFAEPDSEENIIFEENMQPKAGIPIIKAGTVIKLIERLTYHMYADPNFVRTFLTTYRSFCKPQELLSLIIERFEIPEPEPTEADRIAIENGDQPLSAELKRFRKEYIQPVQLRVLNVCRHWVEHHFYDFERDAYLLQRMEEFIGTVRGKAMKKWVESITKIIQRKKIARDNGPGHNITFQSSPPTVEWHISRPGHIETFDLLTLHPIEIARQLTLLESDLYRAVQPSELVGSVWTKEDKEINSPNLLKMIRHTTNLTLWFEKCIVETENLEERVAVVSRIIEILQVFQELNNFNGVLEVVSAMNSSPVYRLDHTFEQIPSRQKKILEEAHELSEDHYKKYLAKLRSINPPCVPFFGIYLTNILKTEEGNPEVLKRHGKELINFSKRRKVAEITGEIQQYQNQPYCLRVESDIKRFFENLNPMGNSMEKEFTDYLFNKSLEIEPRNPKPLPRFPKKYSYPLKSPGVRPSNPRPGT
Assay: fluorescence-based thermal shift assay (SYPRO Orange) with Langmuir Kd fit; supported by BLI of Sos1/H-Ras complex dissociation (KDapp […])
Type: binding

Kd: 17.5 ± 2.2 mM
Compound: O=P(O)(O)OC[C@H]1OC(O)(COP(=O)(O)O)[C@@H](O)[C@@H]1O (stereo partly shown) [Fru1,6bisP]
